Laboratory results published in patent US20220348590A1, “CYCLOOXYGENASE-2 INHIBITORS AND USES THEREOF” (The Board Institute, Inc., priority 2019, published 2022).
“Also recorded” adds a separate entry of the source.

What was measured:
[1] = Mouse Microsome Stability; type: in vitro ADME; settings: mouse microsomes
[2] = biological target: T1, human recombinant COX2 (hCOX2) (UniProt P35354); assay: LCMS-based COX2 enzymatic inhibition assay (PGE2 quantification); type: biochemical; parameters: improvement in potency; other: COX2 potency relative to MC1 / earlier ligand; comparator not always stated; other: vs MC1 (MC-1)
T1 sequence (P35354 1-604): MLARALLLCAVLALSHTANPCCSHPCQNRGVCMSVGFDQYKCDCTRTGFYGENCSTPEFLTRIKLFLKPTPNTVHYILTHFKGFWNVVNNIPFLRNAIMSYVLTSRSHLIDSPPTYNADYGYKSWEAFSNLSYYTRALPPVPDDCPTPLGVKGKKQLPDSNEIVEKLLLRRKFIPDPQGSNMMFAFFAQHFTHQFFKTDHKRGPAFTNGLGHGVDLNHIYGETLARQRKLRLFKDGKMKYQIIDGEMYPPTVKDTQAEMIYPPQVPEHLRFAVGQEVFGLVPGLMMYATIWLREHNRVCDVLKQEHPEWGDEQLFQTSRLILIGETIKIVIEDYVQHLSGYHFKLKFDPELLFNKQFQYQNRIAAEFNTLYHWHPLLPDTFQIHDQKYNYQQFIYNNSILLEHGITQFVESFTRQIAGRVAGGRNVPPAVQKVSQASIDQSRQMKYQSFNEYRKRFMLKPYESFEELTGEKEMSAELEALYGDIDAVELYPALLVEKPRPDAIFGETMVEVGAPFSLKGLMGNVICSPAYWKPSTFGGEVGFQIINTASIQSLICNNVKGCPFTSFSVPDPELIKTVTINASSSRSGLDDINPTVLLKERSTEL
Protocol: We have adapted a previously reported cyclooxygenase enzymatic assay utilizing LCMS quantification of PGE2 as the product of COX-1 and COX2 catalyzed conversion of arachidonic acid to evaluate the binding properties of newly synthesized ligands [Cao, 2011]. These optimized and miniaturized (384-well plates) LCMS-based COX-1 and COX2 enzymatic assays enabled us to quickly evaluate newly synthesized ligands for COX2 binding affinity and selectivity vs COX-1. Using a shorter ligand-enzyme incubation time in the LCMS assay (2 minutes vs 10 minutes) also permitted us to prioritize ligands with faster binding kinetics. Considering the relatively slow on-rate kinetics of known coxibs, due to their 3-step binding mechanism [Marnett, 2009], we believe that optimizing this critical parameter will be key to the successful development of a COX2 PET tracer. Using these enzymatic assays, we have evaluated>200 newly synthesized ligands against COX2 and >20 ligands against COX-1. Another critical property necessary for a good PET radiotracer is to have low non-specific binding (NSB) to increase the free fraction and maximize the signal to noise ratio. This property can be evaluated using in-vitro protein binding assays, and we have now evaluated>50 newly synthesized ligands in mouse, rat and human plasma protein binding (PPB) assays as well as >15 ligands in a mouse brain protein binding (BPB) assay.
Ovine COX-1 (oCOX-1), ovine COX2 (oCOX2), human recombinant COX2 (hCOX2), arachidonic acid, PGE2, d4-PGD2, and […] (labeled with deuterium atoms at positions 3 and 4) were purchased from Cayman Chemicals (Ann Arbor, Mich.). The cofactors (−)epinephrine and hematin, and the COX inhibitors indomethacin, resveratrol and diclofenac were purchased from Sigma-Aldrich (St. Louis, Mo.). Celecoxib was purchased from 3B PharmaChem International (Wuhan, China). All organic solvents were HPLC grade or better and were purchased from Thermo Fisher (Hanover Park, Ill.). Formic acid was purchased from EMD Chemicals (San Diego, Calif.). Purified water was prepared by using a Millipore Milli-Q purification system (Millipore, Billerica, Mass.). All other chemicals and solvents were ACS reagent grade, unless stated otherwise.
In an Eppendorf tube, 146 μL of 100 mM Tris.HCl (pH 8.0) buffer, 2 μL of 100 μM hematin (co-factor) and 10 μL of 40 mM L-epinephrine (co-factor) were mixed at room temperature. […]
The concentration of PGE2 in each sample was measured using LC-MS-MS, and the percent of COX inhibition by each test solution was determined by comparing the amount of PGE2 produced in the experiment with that produced in the negative control incubation. The formation of PGD2 was measured for quality control purposes, since the levels of PGD2 should be proportional to those of PGE2. […]

Row | improvement in potency ([2]; COX2 potency relative to MC1 / earlier ligand, comparator not always stated) [fold] | Structure (SMILES) | Mouse Microsome Stability % Remaining Avg [1] [%] | potency / binding affinity compared to MC1 ([2]; vs MC1 (MC-1))
1 |  | COc1ncc(NCc2cccs2)nc1-c1ccc(S(C)(=O)=O)cc1 [Compound 29] | 4.3 | 
2 | ~4 | CS(=O)(=O)c1ccc(-c2cccc(NCc3ccoc3)n2)cc1 [Compound 47, N-(furan-3-ylmethyl)-6-(4-(methylsulfonyl)phenyl)pyridin-2-amine] |  | 
3 |  | CS(=O)(=O)c1ccc(-c2cncc(NCc3cccs3)n2)cc1 [Compound 98] | 3 | maintaining potency; also recorded: equivalent binding affinity
